Test results taken from PubChem BioAssay AID1963982 (Molecular Pharmacology Branch, DTP, NCI, 2024).
pIC50: −log10 of the molar value. Each block holds one compound with its values, some of them ahead of it.

Tested on: 313798-341-R-J2-PDC spheroids, viability
Assay: Anticancer human tumor 313798-341-R-J2-PDC patient-derived cervical squamous cell carcinoma cell line growth inhibition [PI3K]
Conditions: spheroids with HUVEC and MSC; for pIC50: curve of first compound; for viability, T/C: stronger effect = lower value
Summary of the method: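 Stroma-containing spheroids: tumor line, pooled-donor HUVEC, hMSC. Treatments: targeted agents with PI3K inhibitors. Dosing: clinically relevant, half-log spacing, 10 microM ceiling without known Cmax. Read-out: cell viability.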
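Further: spheroids exposed to compounds for seven days.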
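Wherever viability, T/C is given: 100% = DMSO vehicle control viability.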

- pIC50 (second compound 0.00316 µM): < 5.52
- pIC50 (second compound 0.01 µM): < 5.52
- pIC50 (second compound 0.0316 µM): 5.53
- pIC50 (second compound 0.1 µM): > 8.02
- pIC50 (second compound 0.316 µM): > 8.02
- pIC50 (second compound 1 µM): > 8.02
Structure (SMILES): Cn1cnc2c(F)c(Nc3ccc(Br)cc3Cl)c(C(=O)NOCCO)cc21 + COc1c(OCCCN2CCOCC2)ccc2c3n(c(=NC(=O)c4cnc(N)nc4)nc12)CCN3
- viability, T/C (second compound 0.00316 µM, first compound 0.00949 µM): 88%
- viability, T/C (second compound 0.00316 µM, first compound 0.03 µM): 93.1%
- viability, T/C (second compound 0.00316 µM, first compound 0.0949 µM): 95.2%
- viability, T/C (second compound 0.00316 µM, first compound 0.3 µM): 87.6%
- viability, T/C (second compound 0.00316 µM, first compound 0.949 µM): 97.3%
- viability, T/C (second compound 0.00316 µM, first compound 3 µM): 75.7%
- viability, T/C (second compound 0.01 µM, first compound 0.00949 µM): 93.1%
- viability, T/C (second compound 0.01 µM, first compound 0.03 µM): 100%
- viability, T/C (second compound 0.01 µM, first compound 0.0949 µM): 97.3%
- viability, T/C (second compound 0.01 µM, first compound 0.3 µM): 101%
- viability, T/C (second compound 0.01 µM, first compound 0.949 µM): 82%
- viability, T/C (second compound 0.01 µM, first compound 3 µM): 70.3%
- viability, T/C (second compound 0.0316 µM, first compound 0.00949 µM): 84.8%
- viability, T/C (second compound 0.0316 µM, first compound 0.03 µM): 75.5%
- viability, T/C (second compound 0.0316 µM, first compound 0.0949 µM): 75%
- viability, T/C (second compound 0.0316 µM, first compound 0.3 µM): 62.5%
- viability, T/C (second compound 0.0316 µM, first compound 0.949 µM): 73.4%
- viability, T/C (second compound 0.0316 µM, first compound 3 µM): 46.8%
- viability, T/C (second compound 0.1 µM, first compound 0.00949 µM): 45.2%
- viability, T/C (second compound 0.1 µM, first compound 0.03 µM): 35.3%
- viability, T/C (second compound 0.1 µM, first compound 0.0949 µM): 32.3%
- viability, T/C (second compound 0.1 µM, first compound 0.3 µM): 31.6%
- viability, T/C (second compound 0.1 µM, first compound 0.949 µM): 26.4%
- viability, T/C (second compound 0.1 µM, first compound 3 µM): 17.1%
- viability, T/C (second compound 0.316 µM, first compound 0.00949 µM): 12.5%
- viability, T/C (second compound 0.316 µM, first compound 0.03 µM): 9.53%
- viability, T/C (second compound 0.316 µM, first compound 0.0949 µM): 5.72%
- viability, T/C (second compound 0.316 µM, first compound 0.3 µM): 4.75%
- viability, T/C (second compound 0.316 µM, first compound 0.949 µM): 3.32%
- viability, T/C (second compound 0.316 µM, first compound 3 µM): 2.54%
- viability, T/C (second compound 1 µM, first compound 0.00949 µM): 10.1%
- viability, T/C (second compound 1 µM, first compound 0.03 µM): 5.21%
- viability, T/C (second compound 1 µM, first compound 0.0949 µM): 3.78%
- viability, T/C (second compound 1 µM, first compound 0.3 µM): 3.94%
- viability, T/C (second compound 1 µM, first compound 0.949 µM): 2.23%
- viability, T/C (second compound 1 µM, first compound 3 µM): 1%

- pIC50 (second compound 0.00316 µM): 6.03
- pIC50 (second compound 0.01 µM): 6.17
- pIC50 (second compound 0.0316 µM): 6.55
- pIC50 (second compound 0.1 µM): > 7.50
- pIC50 (second compound 0.316 µM): > 7.50
- pIC50 (second compound 1 µM): > 7.50
Structure (SMILES): Cn1ncc(Cl)c1-c1cc(C(=O)NC(CN)Cc2cccc(F)c2)sc1Cl (centres undefined) + COc1c(OCCCN2CCOCC2)ccc2c3n(c(=NC(=O)c4cnc(N)nc4)nc12)CCN3
- viability, T/C (second compound 0.00316 µM, first compound 0.0316 µM): 107%
- viability, T/C (second compound 0.00316 µM, first compound 0.1 µM): 84.7%
- viability, T/C (second compound 0.00316 µM, first compound 0.316 µM): 71%
- viability, T/C (second compound 0.00316 µM, first compound 1 µM): 46.7%
- viability, T/C (second compound 0.00316 µM, first compound 3.16 µM): 36.6%
- viability, T/C (second compound 0.00316 µM, first compound 10 µM): 35.5%
- viability, T/C (second compound 0.01 µM, first compound 0.0316 µM): 100%
- viability, T/C (second compound 0.01 µM, first compound 0.1 µM): 99%
- viability, T/C (second compound 0.01 µM, first compound 0.316 µM): 69.2%
- viability, T/C (second compound 0.01 µM, first compound 1 µM): 41.6%
- viability, T/C (second compound 0.01 µM, first compound 3.16 µM): 30.8%
- viability, T/C (second compound 0.01 µM, first compound 10 µM): 36.8%
- viability, T/C (second compound 0.0316 µM, first compound 0.0316 µM): 99.3%
- viability, T/C (second compound 0.0316 µM, first compound 0.1 µM): 61.9%
- viability, T/C (second compound 0.0316 µM, first compound 0.316 µM): 53.7%
- viability, T/C (second compound 0.0316 µM, first compound 1 µM): 36.4%
- viability, T/C (second compound 0.0316 µM, first compound 3.16 µM): 25.2%
- viability, T/C (second compound 0.0316 µM, first compound 10 µM): 25.5%
- viability, T/C (second compound 0.1 µM, first compound 0.0316 µM): 49.4%
- viability, T/C (second compound 0.1 µM, first compound 0.1 µM): 43.5%
- viability, T/C (second compound 0.1 µM, first compound 0.316 µM): 41.4%
- viability, T/C (second compound 0.1 µM, first compound 1 µM): 27.1%
- viability, T/C (second compound 0.1 µM, first compound 3.16 µM): 20.2%
- viability, T/C (second compound 0.1 µM, first compound 10 µM): 15.4%
- viability, T/C (second compound 0.316 µM, first compound 0.0316 µM): 17.5%
- viability, T/C (second compound 0.316 µM, first compound 0.1 µM): 18.1%
- viability, T/C (second compound 0.316 µM, first compound 0.316 µM): 15.2%
- viability, T/C (second compound 0.316 µM, first compound 1 µM): 16.6%
- viability, T/C (second compound 0.316 µM, first compound 3.16 µM): 13%
- viability, T/C (second compound 0.316 µM, first compound 10 µM): 5.97%
- viability, T/C (second compound 1 µM, first compound 0.0316 µM): 12.7%
- viability, T/C (second compound 1 µM, first compound 0.1 µM): 12.4%
- viability, T/C (second compound 1 µM, first compound 0.316 µM): 13.6%
- viability, T/C (second compound 1 µM, first compound 1 µM): 12.3%
- viability, T/C (second compound 1 µM, first compound 3.16 µM): 9.74%
- viability, T/C (second compound 1 µM, first compound 10 µM): 3.3%
